The text below walks through data of PMC11826341 (PNAS Nexus, 2025).

The test system of data set [1] is cultured hippocampal neurons.
In data set [2] the test system is sEPSCNMDAR, synaptic NMDARs of cultured hippocampal neurons. Format: cell-based, rat.
The test system of data set [3] is cultured hippocampal neurons. To be noted: 48 h.

SMILES strings stand for the structures. Entries after “also recorded” stand apart in the source; their conditions may differ.

`CN[C@@H]1C[C@H]2O[C@@](C)([C@@H]1OC)n1c3ccccc3c3c4c(c5c6ccccc6n2c5c31)C(=O)NC4` [STRO, staurosporine]: in data set [1], the Apoptotic neurons stood at 30.85% and the “Dead (apoptotic) neurons” value is 76.99%.
For `CC(C(O)c1ccc(O)cc1)N1CCC(Cc2ccccc2)CC1` (centres unmarked) [ifenprodil], the “sEPSCNMDAR amplitude” value in data set [2] was “strongly reduced amplitudes; also recorded: significantly less so in mature neurons”.
For `N[C@H](CCCP(=O)(O)O)C(=O)O` [AP5, (2R)-amino-5-phosphonovaleric acid], the “Neuroprotection against STRO” value in data set [1] was “did not exert neuroprotection”.
In the case of `CN[C@H](CC(=O)O)C(=O)O` [NMDA, N-methyl-D-aspartate], in data set [3], the Neurons killed is ~80%.
